Like-named read-outs stand apart in the source and are kept apart here.
Key:
Assay in all cases: Test B flooded paddy test plant response
Type in all cases: in vivo
[1] = tested on: ducksalad (Heteranthera limosa); conditions: Heteranthera limosa, read-out: Plant response rating, Ducksalad; for pest or weed control at 62 g/ha: 62 g ai/ha; for pest or weed control at 250 g/ha: 250 g ai/ha
In short: (§1)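 2-leaf plants; pots flooded 3 cm above soil; compound added to paddy water; depth maintained. Greenhouse 13–15 d. Visual rating vs controls, 0 (no effect) to 100 (complete control); dash = no result.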

[2] = tested on: barnyardgrass (Echinochloa crus-galli); conditions: Echinochloa crus-galli, read-out: Plant response rating, Barnyardgrass; for pest or weed control at 62 g/ha: 62 g ai/ha; for pest or weed control at 250 g/ha: 250 g ai/ha
In short: as §1

rice (Oryza sativa) = conditions: Oryza sativa, read-out: Plant response rating, Rice; for plant injury at 62 g/ha: 62 g ai/ha; for plant injury at 250 g/ha: 250 g ai/ha
In short: as §1

[3] = tested on: umbrella sedge (Cyperus difformis); conditions: Cyperus difformis, read-out: Plant response rating, Sedge, Umbrella; for pest or weed control at 62 g/ha: 62 g ai/ha; for pest or weed control at 250 g/ha: 250 g ai/ha
In short: as §1

[4] = Flood (flooded paddy test), scale 0 to 100, 0 no effect, 100 complete control
[5] = Flood (flooded paddy test), 125 g ai/ha, scale 0 to 100, 0 no effect, 100 complete control
[6] = Flood, 31 g ai/ha, scale 0 to 100

Cc1cc(-c2ccc(Br)cc2)nn1-c1c(O)cnn(C2CCCCO2)c1=O (centres unmarked) [Compound 77, 4-[3-(4-bromophenyl)-5-methyl-1H-pyrazol-1-yl]-5-hydroxy-2-(tetrahydro-2H-pyran-2-yl)-3(2H)-pyridazinone]
0%: pest or weed control at 62 g/ha [1, 4] | pest or weed control at 125 g/ha [1, 5] | pest or weed control at 250 g/ha [1, 4] | pest or weed control at 31 g/ha [1, 6] | pest or weed control at 62 g/ha [2, 4] | pest or weed control at 125 g/ha [2, 5] | pest or weed control at 250 g/ha [2, 4] | pest or weed control at 31 g/ha [2, 6] | plant injury at 62 g/ha (rice (Oryza sativa); [4]) | plant injury at 125 g/ha (rice (Oryza sativa); [5]) | plant injury at 250 g/ha (rice (Oryza sativa); [4]) | plant injury at 31 g/ha (rice (Oryza sativa); [6]) | pest or weed control at 62 g/ha [3, 4] | pest or weed control at 125 g/ha [3, 5] | pest or weed control at 250 g/ha [3, 4] | pest or weed control at 31 g/ha [3, 6]

Cc1cn(-c2ccc(C(F)(F)F)cc2)nc1-c1c(O)cnn(C)c1=O [Compound 85, 5-hydroxy-2-methyl-4-[4-methyl-1-[4-(trifluoromethyl)phenyl]-1H-pyrazol-3-yl]-3(2H)-pyridazinone]
0%: pest or weed control at 250 g/ha [1, 4] | pest or weed control at 62 g/ha ([1]; Flood, scale 0 to 100) | pest or weed control at 250 g/ha [2, 4] | pest or weed control at 62 g/ha ([2]; Flood, scale 0 to 100) | plant injury at 250 g/ha (rice (Oryza sativa); [4]) | plant injury at 62 g/ha (rice (Oryza sativa); Flood, scale 0 to 100) | pest or weed control at 250 g/ha [3, 4] | pest or weed control at 62 g/ha ([3]; Flood, scale 0 to 100)

Cn1ncc(O)c(-c2nn(-c3ccc(C(F)(F)F)cc3)cc2Br)c1=O [Compound 87, 4-[4-bromo-1-[4-(trifluoromethyl)phenyl]-1H-pyrazol-3-yl]-5-hydroxy-2-methyl-3(2H)-pyridazinone]
0%: pest or weed control at 250 g/ha [1, 4] | pest or weed control at 62 g/ha ([1]; Flood, scale 0 to 100) | pest or weed control at 250 g/ha [2, 4] | pest or weed control at 62 g/ha ([2]; Flood, scale 0 to 100) | plant injury at 250 g/ha (rice (Oryza sativa); [4]) | plant injury at 62 g/ha (rice (Oryza sativa); Flood, scale 0 to 100) | pest or weed control at 250 g/ha [3, 4] | pest or weed control at 62 g/ha ([3]; Flood, scale 0 to 100)

Reference: patent publication US20100267561A1, “HERBICIDAL PYRIDAZINONE DERIVATIVES” (priority 2007, published 2010)
